Several values for one entry are separate records, joined by “and”; a condition that tells them apart may be missing. Equal entries are not always repeated. Where two headings read alike, the source gives them in different places. Marks after values point to notes of the source that are not given here.
Assays:
[1] = Single-species scaling
[2] = Incubations with minipig hepatic S9
[3] = type: in vitro ADME
[4] = Incubations with human hepatic S9; conditions: for CLint scaled at 1 μM: both
[5] = Allometric scaling; design: species or system human; conditions: for SSS Human Predicted S9 CLint: exponent 0.75
[6] = Incubations with rhesus monkey hepatic S9
[7] = cited from earlier work
[8] = Incubations with cynomolgus monkey hepatic S9
[9] = Incubations with guinea pig hepatic S9
[10] = Incubations with rat hepatic S9
[11] = cynomolgus monkey; ref Hutzler JM, Cerny MA, Yang YS et al. (2014); cited from earlier work
[12] = Incubations with mouse hepatic S9
[13] = rat; ref Hutzler JM, Cerny MA, Yang YS et al. (2014); cited from earlier work
[14] = mouse; ref Hutzler JM, Cerny MA, Yang YS et al. (2014); cited from earlier work
[15] = male, cynomolgus monkey, pH 7.4
[16] = male, Hartley, guinea pig, pH 7.4
[17] = male, Gottingen, minipig, 1 μM, pH 7.4
[18] = in vitro; conditions: male, Gottingen, minipig, s9, pH 7.4, CLint +NADPH
[19] = in vitro; conditions: male, cynomolgus monkey
[20] = in vitro; conditions: male, Hartley, guinea pig
[21] = in vitro; conditions: male, Sprague-Dawley, rat, s9, pH 7.4, CLint +NADPH
[22] = male, rhesus monkey, pH 7.4
[23] = male, CD-1, mouse, 1 μM, pH 7.4
[24] = in vitro; conditions: male, rhesus monkey
[25] = male, Sprague-Dawley, rat, 1 μM, pH 7.4
[26] = in vitro; conditions: male, CD-1, mouse, s9, pH 7.4, CLint +NADPH
[27] = both, human, pH 7.4
[28] = in vitro; conditions: both, human

Compound: CN1CCC(Nc2ncc3ncnc(Nc4ccc(F)c(Cl)c4)c3n2)CC1 [BIBX1382]
- SSS Human Predicted CLp ([1]; single-species scaling from literature cynomolgus monkey CLp): 56 mL/min/kg and 56.0 mL/min/kg
- SSS Human Predicted CLp ([1]; single-species scaling from literature mouse CLp): 7.2 mL/min/kg
- SSS Human Predicted CLp ([1]; single-species scaling from literature rat CLp): 13.4 mL/min/kg
- CLint scaled at 1 μM ([2]; male, Gottingen, minipig, s9, pH 7.4, CLint (intrinsic clearance) in hepatic S9, minipig hepatic S9, in the presence of NADPH, Table 1, triplicate, 2–3 experiments): 134 ± 5.69 mL/min/kg
- Fm,AO Method A (fraction metabolized by AO) ([2]; minipig hepatic S9, method A (eq. 4)): 0.85
- Fm,AO Method B (fraction metabolized by AO) ([2]; minipig hepatic S9, method B (eq. 5), values > 1 assumed equal to 1): 0.96
- E (estimated hepatic extraction ratio) ([2]; minipig, E = CLHEP/QH from hepatic S9 (+NADPH)): 0.83
- E (estimated hepatic extraction ratio), across species ([3]; human, monkey, and minipig S9): 0.72 – 0.83
- CLint scaled at 1 μM ([4]; human, s9, pH 7.4, CLint (intrinsic clearance) in hepatic S9, human hepatic S9, in the presence of NADPH, Table 1, triplicate, 2–3 experiments): 80.2 ± 9.61 mL/min/kg
- CLint scaled at 1 μM ([4]; human, s9, pH 7.4, CLint +NADPH +Hyd, human hepatic S9 containing NADPH and hydralazine (50 μM)): 5.83 ± 1.22 mL/min/kg
- CLint scaled at 1 μM ([4]; human, s9, pH 7.4, CLint −NADPH +Hyd, human hepatic S9 containing hydralazine (50 μM) without NADPH): 3.93 ± 1.75 mL/min/kg
- CLint scaled at 1 μM ([4]; human, s9, pH 7.4, CLint −NADPH, human hepatic S9 without NADPH): 69.6 ± 2.1 mL/min/kg
- Fm,AO Method A (fraction metabolized by AO) ([4]; human hepatic S9, method A (eq. 4)): 0.92
- Fm,AO Method B (fraction metabolized by AO) ([4]; human hepatic S9, method B (eq. 5), values > 1 assumed equal to 1): 0.92
- Fm,AO (fraction metabolized by AO) ([4]; human hepatic S9, methods A and B taken together (data from Table 3)): 0.92
- E (estimated hepatic extraction ratio) ([4]; human, E = CLHEP/QH from hepatic S9 (+NADPH)): 0.79
- fold-error of human S9 CLint predicted by SSS ([5]; SSS from guinea pig): outside of 3-fold-error
- SSS Human Predicted S9 CLint ([5]; single-species scaling from cynomolgus monkey S9 CLint): 88.7 mL/min/kg
- SSS Human Predicted S9 CLint ([5]; single-species scaling from mouse S9 CLint): 4.3 mL/min/kg
- SSS Human Predicted S9 CLint ([5]; single-species scaling from rat S9 CLint): 7.5 mL/min/kg
- Fm,AO Method A (fraction metabolized by AO) ([6]; rhesus monkey hepatic S9, method A (eq. 4)): 0.94
- Fm,AO Method B (fraction metabolized by AO) ([6]; rhesus monkey hepatic S9, method B (eq. 5), values > 1 assumed equal to 1): 0.86
- E (estimated hepatic extraction ratio) ([6]; rhesus monkey, E = CLHEP/QH from hepatic S9 (+NADPH)): 0.72
- CLp (plasma clearance) ([7]; human, ref Hutzler JM, Cerny MA, Yang YS et al. (2014)): 25–55^¶ mL/min/kg
- Fm,AO Method A (fraction metabolized by AO) ([8]; cynomolgus monkey hepatic S9, method A (eq. 4)): 1
- Fm,AO Method B (fraction metabolized by AO) ([8]; cynomolgus monkey hepatic S9, method B (eq. 5), values > 1 assumed equal to 1): 1^#
- Fm,AO (fraction metabolized by AO) ([8]; cynomolgus monkey hepatic S9, methods A and B taken together (data from Table 3)): 1.0
- E (estimated hepatic extraction ratio) ([8]; cynomolgus monkey, E = CLHEP/QH from hepatic S9 (+NADPH)): 0.80
- Fm,AO Method A (fraction metabolized by AO) ([9]; guinea pig hepatic S9, method A (eq. 4)): 0.65
- Fm,AO Method B (fraction metabolized by AO) ([9]; guinea pig hepatic S9, method B (eq. 5), values > 1 assumed equal to 1): 0.73
- E (estimated hepatic extraction ratio) ([9]; guinea pig, E = CLHEP/QH from hepatic S9 (+NADPH)): 0.54
- CLint scaled at 1 μM ([10]; male, Sprague-Dawley, rat, s9, pH 7.4, CLint (intrinsic clearance) in hepatic S9, rat hepatic S9, in the presence of NADPH, Table 1, triplicate, 2–3 experiments): 30.7 ± 3.56 mL/min/kg
- Fm,AO Method A (fraction metabolized by AO) ([10]; rat hepatic S9, method A (eq. 4)): 0.09
- Fm,AO Method B (fraction metabolized by AO) ([10]; rat hepatic S9, method B (eq. 5), values > 1 assumed equal to 1): 0.69
- Fm,AO (fraction metabolized by AO) ([10]; rat hepatic S9, methods A and B taken together (data from Table 3)): ≤ 0.69
- CLint +NADPH +Hyd ([10]; rat hepatic S9 containing NADPH and hydralazine (50 μM)): 25.1 ± 6.29 mL/min/kg
- CLint +NADPH ([10]; rat hepatic S9 containing NADPH, Table 3 data set, triplicate): 27.6 ± 0.995 mL/min/kg
- E (estimated hepatic extraction ratio) ([10]; rat, E = CLHEP/QH from hepatic S9 (+NADPH)): 0.30
- CLHEP (hepatic clearance) ([10]; rat, well-stirred model from S9 CLint (+NADPH), uncorrected for fraction unbound): 21.3 ± 1.73 mL/min/kg
- CLp (plasma clearance) [11]: 118^¶ mL/min/kg
- CLint scaled at 1 μM ([12]; male, CD-1, mouse, s9, pH 7.4, CLint (intrinsic clearance) in hepatic S9, mouse hepatic S9, in the presence of NADPH, Table 1, triplicate, 2–3 experiments): 33.2 ± 7.1 mL/min/kg
- E (estimated hepatic extraction ratio) ([12]; mouse, E = CLHEP/QH from hepatic S9 (+NADPH)): 0.27
- CLp (plasma clearance) [13]: 55^¶ mL/min/kg
- CLp (plasma clearance) [14]: 55^¶ mL/min/kg

Compound: Nc1nc(OCc2ccccc2)c2[nH]cnc2n1 [O^6-benzylguanine]
- CLHEP (hepatic clearance) ([15]; 1 μM): 21.4 ± 2.28 mL/min/kg
- E (estimated hepatic extraction ratio) ([15]; 1 μM): 0.49
- Fm,AO Method A (fraction metabolized by AO) ([15]; s9, 1 μM): 1
- Fm,AO Method B (fraction metabolized by AO) ([15]; s9, 1 μM): 0.94
- CLHEP (hepatic clearance) ([16]; 1 μM): 30.3 ± 1.11 mL/min/kg
- E (estimated hepatic extraction ratio) ([16]; 1 μM): 0.50
- Fm,AO Method A (fraction metabolized by AO) ([16]; s9, 1 μM): 0.74
- Fm,AO Method B (fraction metabolized by AO) ([16]; s9, 1 μM): 0.83
- Fm,AO, across species ([3]; all species except rat, mouse, and minipig): ≥ 0.70
- E (estimated hepatic extraction ratio), across species ([3]; human, cynomolgus, and guinea pig hepatic S9): approximately 0.5
- E (estimated hepatic extraction ratio), across species ([3]; rat, mouse, minipig hepatic S9): approximately 0.1
- CLHEP (hepatic clearance) [17]: 3.79 ± 1.04 mL/min/kg
- E (estimated hepatic extraction ratio) [17]: 0.14
- CLint scaled at 1 μM [18]: 4.68 ± 2.2 mL/min/kg
- CLint scaled at 1 μM ([19]; s9, pH 7.4, CLint +NADPH): 35.6 ± 5.1 mL/min/kg
- CLint scaled at 1 μM ([19]; s9, pH 7.4, CLint −NADPH): 33.5 ± 3.84 mL/min/kg
- CLint scaled at 1 μM ([20]; s9, pH 7.4, CLint +NADPH): 58.7 ± 4.65 mL/min/kg
- CLint scaled at 1 μM ([20]; s9, pH 7.4, CLint +NADPH +Hyd): 15 ± 2.14 mL/min/kg
- CLint scaled at 1 μM ([20]; s9, pH 7.4, CLint −NADPH): 48.7 ± 5.15 mL/min/kg
- CLint scaled at 1 μM [21]: 6.59 ± 0.664 mL/min/kg
- fold-error of human S9 CLint predicted by SSS ([5]; SSS from minipig): outside of 3-fold-error
- CLHEP (hepatic clearance) ([22]; 1 μM): 15.0 ± 1.75 mL/min/kg
- E (estimated hepatic extraction ratio) ([22]; 1 μM): 0.34
- Fm,AO Method A (fraction metabolized by AO) ([22]; s9, 1 μM): 1
- Fm,AO Method B (fraction metabolized by AO) ([22]; s9, 1 μM): 1^#
- CLHEP (hepatic clearance) [23]: 16.6 ± 4.51 mL/min/kg
- E (estimated hepatic extraction ratio) [23]: 0.18
- Human Plasma Clearance ([7]; i.v., ref Dolan ME, Roy SK, Fasanmade AA, et al. (1998)): 14.5^# mL/min/kg
- CLint scaled at 1 μM ([24]; s9, pH 7.4, CLint +NADPH): 19.5 ± 2.05 mL/min/kg
- CLint scaled at 1 μM ([24]; s9, pH 7.4, CLint −NADPH): 21.3 ± 1.52 mL/min/kg
- CLHEP (hepatic clearance) [25]: 7.40 ± 1.61 mL/min/kg
- E (estimated hepatic extraction ratio) [25]: 0.11
- CLint scaled at 1 μM [26]: 15.5 ± 2.48 mL/min/kg
- CLHEP (hepatic clearance) ([27]; 1 μM): 9.62 ± 0.593 mL/min/kg
- E (estimated hepatic extraction ratio) ([27]; 1 μM): 0.46
- Fm,AO Method A (fraction metabolized by AO) ([27]; s9, 1 μM): 0.70
- Fm,AO Method B (fraction metabolized by AO) ([27]; s9, 1 μM): 0.83
- CLint scaled at 1 μM ([28]; s9, pH 7.4, CLint +NADPH): 17.8 ± 3.05 mL/min/kg
- CLint scaled at 1 μM ([28]; s9, pH 7.4, CLint +NADPH +Hyd): 5.37 ± 1.16 mL/min/kg
- CLint scaled at 1 μM ([28]; s9, pH 7.4, CLint −NADPH): 14.8 ± 1.98 mL/min/kg
